Here are results for eight compounds from ChEMBL document CHEMBL1201862, “PubChem BioAssay data set” (2004).

Test systems include SF-295; IGROV-1; LOX IMVI; U-251; A498; MDA-MB-231; HOP-92; SW-620; M14; OVCAR-8; SR; SK-MEL-2; NCI-H226; HCT-116; RXF 393; HT-29; SF-268; SK-MEL-28; HOP-62.
What all share (assay): inhibition of tumour cell growth, NCI panel, 48 h

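Values below derive from 48-hour exposures of cells grown in 96-well plates, with endpoints linearly interpolated between the two concentrations bracketing the appropriate inhibition level. Here, GI50 denotes the concentration required for 50% inhibition of growth.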 Calls of active or inactive are those of the source. No stated cut-off is given here; in the data, active = GI50 up to about 1.1 µM and inactive = higher.

Turning to `CC(C)CC(NC(=O)C(COc1ccc([N+](=O)[O-])cc1)Cc1ccccc1)C(=O)Nc1ccccc1` (stereo not drawn), the GI50 in the assay with SF-295 is 11.2 µM (inactive); with IGROV-1 it was 7.8 µM (inactive); in the assay with LOX IMVI it was 48.6 µM (inactive); in the assay on U-251, 12.6 µM (inactive); with A498, 24 µM (inactive); in the assay with MDA-MB-231, 21.1 µM (inactive). Moreover, the GI50 was 13.3 µM (inactive) in the assay on HOP-92; 24.3 µM (inactive) in the assay with SW-620; 9.53 µM (inactive) in the assay on M14; 6.98 µM (inactive) with OVCAR-8; 41.5 µM (inactive) in the assay on SR; 21.7 µM (inactive) with SK-MEL-2. In addition, the figures for the GI50 with NCI-H226, in the assay with HCT-116 and in the assay on RXF 393 were 3.44 µM (inactive), 22.2 µM (inactive) and 16.3 µM (inactive), respectively.
For `CCCCOCCOCCOC1=C(Cl)C(=O)c2c(O)ccc(O)c2C1=O`, the GI50 in the assay on SF-295 is 1.73 µM (inactive); in the assay on IGROV-1, 1.35 µM (inactive); in the assay with LOX IMVI, 0.512 µM (active); with U-251, 1.67 µM (inactive); in the assay with A498, 2.36 µM (inactive); in the assay on HT-29, 0.484 µM (active). Further, the GI50 in the assay with SF-268 was 0.759 µM (active); in the assay on MDA-MB-231 it was 0.488 µM (active); in the assay with HOP-92, 0.199 µM (active); with SK-MEL-28 it was 0.357 µM (active); in the assay with SW-620, 0.283 µM (active); with M14, 0.161 µM (active). Besides, the GI50 with HOP-62 is 1.19 µM (inactive); in the assay on OVCAR-8 it was 1.37 µM (inactive); in the assay with SR it was < 0.01 µM (active); in the assay with NCI-H226 it was 1.79 µM (inactive); in the assay with HCT-116 it was 0.401 µM (active); with RXF 393, 0.809 µM (active).
Take `CCOC(=O)CSc1nc(-c2ccc(OC)cc2)c(C#N)c(=O)[nH]1`: the GI50 with SF-295, in the assay on IGROV-1, in the assay with U-251, in the assay on A498, in the assay with HT-29 and in the assay on SF-268 was > 100 µM (inactive) each time. Also, the GI50 in the assay on MDA-MB-231, with HOP-92, in the assay on SK-MEL-28, with SW-620, in the assay with M14 and in the assay on HOP-62 was > 100 µM (inactive) each time. Further, the GI50 with OVCAR-8 is > 100 µM (inactive); with SR it was 84.9 µM (inactive); in the assay with SK-MEL-2 it was > 100 µM (inactive); with NCI-H226 it was > 100 µM (inactive); in the assay with HCT-116, > 100 µM (inactive); in the assay with RXF 393 it was > 100 µM (inactive).
As for `Cc1cc(C)nc(NC(=S)Nc2ccc([N+](=O)[O-])cc2)c1`, the GI50 with IGROV-1, with LOX IMVI, in the assay with U-251, in the assay with A498, with HT-29 and in the assay with SF-268 was > 100 µM (inactive) each time. In addition, the GI50 with MDA-MB-231, in the assay on HOP-92, in the assay with SK-MEL-28, in the assay with SW-620, in the assay with HOP-62 and in the assay on OVCAR-8 was > 100 µM (inactive) in each case. For the same compound, the GI50 in the assay on SR, in the assay with SK-MEL-2, in the assay with NCI-H226, with HCT-116 and in the assay with RXF 393 was > 100 µM (inactive) each time.
As for `O=[N+]([O-])C(C=C(n1nnc2ccccc21)n1nnc2ccccc21)=C(n1nnc2ccccc21)n1nnc2ccccc21`, the GI50 in the assay on SF-295, in the assay with IGROV-1, in the assay with LOX IMVI, with U-251, in the assay with A498 and in the assay on HT-29 was > 100 µM (inactive) throughout. Also, the GI50 in the assay with SF-268 is > 100 µM (inactive); in the assay on MDA-MB-231, > 100 µM (inactive); in the assay on HOP-92, 84.1 µM (inactive); in the assay with SW-620, > 100 µM (inactive); in the assay on M14, > 100 µM (inactive); in the assay with HOP-62, > 100 µM (inactive). Also, the GI50 in the assay with OVCAR-8 was > 100 µM (inactive); in the assay on SR, 23 µM (inactive); in the assay with NCI-H226, > 100 µM (inactive); in the assay with HCT-116, 46.2 µM (inactive); in the assay with RXF 393, > 100 µM (inactive).
For the compound `Cc1ccc(S(=O)(=O)NC(=O)Nc2ccc(C(=O)O)c(O)c2)cc1`, the GI50 was > 100 µM (inactive) in the assay on SF-295; > 100 µM (inactive) in the assay with LOX IMVI; > 100 µM (inactive) with U-251; 68.2 µM (inactive) with A498; > 100 µM (inactive) in the assay with HT-29; > 100 µM (inactive) with SF-268. The GI50 in the assay with MDA-MB-231, in the assay on HOP-92, with SW-620, in the assay with M14, in the assay with HOP-62 and in the assay on OVCAR-8 was > 100 µM (inactive) throughout. Also, the GI50 in the assay on SR, with SK-MEL-2, with NCI-H226, with HCT-116 and with RXF 393 was > 100 µM (inactive) each time.
In the case of `CCOC(=O)CNC1=NNS(=O)(=O)c2ccccc21`, the GI50 was > 100 µM (inactive) in the assay with SF-295; > 100 µM (inactive) in the assay on IGROV-1; > 100 µM (inactive) in the assay on LOX IMVI; > 100 µM (inactive) in the assay with U-251; 20.8 µM (inactive) in the assay on A498; > 100 µM (inactive) with HT-29. Also, the GI50 in the assay with SF-268, in the assay with MDA-MB-231, in the assay with HOP-92, in the assay on SK-MEL-28, with SW-620 and in the assay with M14 was > 100 µM (inactive) each time. The GI50 in the assay with HOP-62 is > 100 µM (inactive); in the assay with OVCAR-8, > 100 µM (inactive); in the assay on SR it was 97.1 µM (inactive); in the assay on NCI-H226, > 100 µM (inactive); with HCT-116, > 100 µM (inactive); with RXF 393, > 100 µM (inactive).
Turning to `Nn1c(-c2ccccc2)nn(C(=O)c2ccccc2)c1=O`, the GI50 with SF-295, in the assay with IGROV-1, with LOX IMVI, with U-251, in the assay on A498 and in the assay with HT-29 was > 100 µM (inactive) in each case. For the same compound, the GI50 in the assay on SF-268, in the assay on MDA-MB-231, in the assay with HOP-92, with SK-MEL-28, in the assay on SW-620 and in the assay with M14 was > 100 µM (inactive) in each case. For the same compound, the GI50 in the assay with HOP-62, in the assay with OVCAR-8, in the assay on SR, in the assay with NCI-H226, with HCT-116 and in the assay on RXF 393 was > 100 µM (inactive) each time.
